Experimental data taken from US7820379B2, “Process for high throughput screening of CpG-based immuno-agonist/antagonist” (Coley Pharmaceutical GmbH, priority 2000, dated 2010).

target: T1, human TLR9 (Homo sapiens, UniProt Q9NR96, H530R/Q688R); assay: NF-κB-luciferase activation in 293 cells transfected with human TLR9 (293-hTLR9-luc); assay type: cell-based; conditions: 293 cells transiently transfected with hTLR9 and NF-κB-luc; 8 h; ODN 2 μM, LPS 100 ng/ml
T1 construct: expressed in transfected cells
T1 sequence (Q9NR96 26-1032 H530R/Q688R): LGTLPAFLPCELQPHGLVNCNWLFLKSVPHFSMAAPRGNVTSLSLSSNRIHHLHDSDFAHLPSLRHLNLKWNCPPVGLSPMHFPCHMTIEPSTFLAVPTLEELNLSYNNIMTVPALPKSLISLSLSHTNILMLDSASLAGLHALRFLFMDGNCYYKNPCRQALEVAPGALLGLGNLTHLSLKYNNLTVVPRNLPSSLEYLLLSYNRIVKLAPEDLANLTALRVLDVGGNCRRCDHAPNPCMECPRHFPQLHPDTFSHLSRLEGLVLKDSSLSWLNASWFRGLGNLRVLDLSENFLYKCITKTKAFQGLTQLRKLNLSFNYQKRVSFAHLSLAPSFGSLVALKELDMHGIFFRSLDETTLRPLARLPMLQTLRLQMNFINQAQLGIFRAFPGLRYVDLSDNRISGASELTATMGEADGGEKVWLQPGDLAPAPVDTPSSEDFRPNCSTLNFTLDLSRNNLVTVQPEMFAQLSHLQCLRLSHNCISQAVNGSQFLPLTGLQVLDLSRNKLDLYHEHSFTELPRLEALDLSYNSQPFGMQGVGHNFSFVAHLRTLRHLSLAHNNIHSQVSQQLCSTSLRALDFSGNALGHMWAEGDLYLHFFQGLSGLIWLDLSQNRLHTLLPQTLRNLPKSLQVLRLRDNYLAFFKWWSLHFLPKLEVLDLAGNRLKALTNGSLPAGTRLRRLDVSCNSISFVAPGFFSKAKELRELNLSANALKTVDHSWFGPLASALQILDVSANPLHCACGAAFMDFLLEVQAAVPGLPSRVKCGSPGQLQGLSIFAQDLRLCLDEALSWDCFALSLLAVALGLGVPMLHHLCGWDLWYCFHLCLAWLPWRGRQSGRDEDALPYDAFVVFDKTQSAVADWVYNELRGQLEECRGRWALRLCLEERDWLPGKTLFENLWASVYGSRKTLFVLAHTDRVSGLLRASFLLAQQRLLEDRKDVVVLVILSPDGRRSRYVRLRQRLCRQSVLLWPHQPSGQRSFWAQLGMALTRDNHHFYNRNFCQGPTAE
Description: Since NF-κB activation is central to the IL-1/TLR signal transduction pathway (Medzhitov R et al., Mol Cell 2:253-258 (1998); Muzio M et al., J Exp Med 187:2097-2101 (1998)), cells were transfected with hTLR9 or co-transfected with hTLR9 and a NF-κB-driven luciferase reporter construct. Human fibroblast 293 cells were transiently transfected with (FIG. 1A) hTLR9 and a six-times NF-κB-luciferase reporter plasmid (NF-κB-luc, kindly provided by Patrick Baeuerle, Munich, Germany) or (FIG. 1B) with hTLR9 alone. After stimulus with CpG-ODN (2006, 2 μM, […], SEQ ID NO:112), GpC-ODN (2006-GC, 2 μM, […], SEQ ID NO:118), LPS (100 ng/ml) or media, NF-κB activation by luciferase readout (8 h, FIG. 1A) or IL-8 production by ELISA (48 h, FIG. 1B) were monitored. Results are representative of three independent experiments.
To generate stable clones expressing human TLR9, murine TLR9, or either TLR9 with the NF-κB-luc reporter plasmid, 293 cells were transfected in 10 cm plates (2×10^6 cells/plate) with 16 μg of DNA and selected with 0.7 mg/ml G418 (PAA Laboratories GmbH, Cölbe, Germany). The clones were also screened for IL-8 production or NF-κB-luciferase activity after stimulation with ODN. Four different types of clones were generated. • 293-hTLR9-luc: expressing human TLR9 and 6-fold NF-κB-luciferase reporter • 293-mTLR9-luc: expressing murine TLR9 and 6-fold NF-κB-luciferase reporter • 293-hTLR9: expressing human TLR9 • 293-mTLR9: expressing murine TLR9 […]
Because stable TLR9 transfectants mirrored primary cell responsiveness to CpG-DNA (FIGS. 4 and 5), it was hypothesized that stable transfectants could potentially discern species-specific CpG-motifs through TLR9 receptors. Therefore 293-hTLR9-luc (expressing human TLR9 and 6-fold NF-κB-luc reporter), 293-mTLR9-luc (expressing murine TLR9 and 6-fold NF-κB-luc reporter), 293-hTLR9 (expressing human TLR9) and 293-mTLR9 (expressing murine TLR9) clones were tested for CpG-DNA motif responsiveness. […] Depicted are both NF-κB-driven luciferase and IL-8 production as readout. […] After lysis of the cells luciferase can be detected photometrically based on an enzymatic reaction by luciferase which creates photons. IL-8 production was monitored using enzyme-linked immunosorbent assay (ELISA). FIG. 11 depicts clones stimulated with ODN 2006 (filled circle), ODN 2006-GC (open circle), ODN 1668 (filled triangle) or ODN 1668-GC (open triangle) at indicated concentrations and NF-κB activation or IL-8 production were measured after 10 and 48 hours, respectively. Results shown in FIG. 11 are representative of three independent experiments. Strikingly, CpG-motif sequence specificity was conferred in a species-specific manner by TLR9. Additionally, the half-maximal concentration for either 2006 or 1668 appears nearly the same as those determined on primary cells (compare FIG. 10 and FIG. 11).
Although 2006 and 1668 are discussed in terms of CpG-motif differences, they are very different in several aspects (see Table 5 for comparison). The lengths are different, 24 versus 20 nucleotides, and 2006 has four CG dinucleotides compared to one in 1668. Additional differences are the CG position relative to the 5′ and 3′ ends and also 5′ sequence differences. In order to determine if motif specificity is a quality of the motif and not the global sequence environment, for this experiment several sequences were produced holding these variables constant. As a starting point, the 1668 sequence was modified by converting the central C to T and the distal TG to CG, thereby creating a second CG in the resulting sequence 5000 (SEQ ID NO:130, Table 5). Then point nucleotide changes were made, progressing toward a 2006-like sequence, 5007 (SEQ ID NO:98). The ODN 5002 (SEQ ID NO:132) is most like 1668 with the exception that C's at positions 12 and 19 have been converted to T's. […]

Substance | NF-κB activation by luciferase readout
TCGTCGTTTTGTCGTTTTGTCGTT [ODN 2006] | responded
lipopolysaccharide [LPS] | not

same assay, conditions: CpG-ODN 2006 compared with CpG-ODN 1668

Substance | human TLR9 signaling response
TCGTCGTTTTGTCGTTTTGTCGTT [ODN 2006] | significantly stronger

same assay, conditions: ODN concentration of half-maximal activation; 293-hTLR9-luc cells, NF-κB-driven luciferase readout, 12 hours; read-out: 293-hTLR9 Kac

Substance | EC50 [µM]
TCCATGTCGTTTTTGTCGTT (listed as DNA, chemistry not fully specified) [ODN 5007] | 0.7
TCCATGAGCTTCCTGATGCT (listed as DNA, chemistry not fully specified) [ODN 1668-GC] | > 10
TCCATGACGTTCTTGACGCT (listed as DNA, chemistry not fully specified) [ODN 5000] | 10
TCGTCGTTTTGTCGTTTTGTCGTT [ODN 2006] | 0.4
TGCTGCTTTTGTGCTTTTGTGCTT (listed as DNA, chemistry not fully specified) [ODN 2006-GC] | > 10
TCCATGACGTTCTTGACGTT (listed as DNA, chemistry not fully specified) [ODN 5001] | 7
TCCATGTCGTTCTTGATGTT (listed as DNA, chemistry not fully specified) [ODN 5004] | 5
TCCATGTCGTTTTTGTTGTT (listed as DNA, chemistry not fully specified) [ODN 5006] | 3
TCCATGTCGTTTTTGATGTT (listed as DNA, chemistry not fully specified) [ODN 5005] | 3
TCCATGACGTTCCTGATGCT (listed as DNA, chemistry not fully specified) [ODN 1668] | > 10
